This is an account of results in patent publication US6410598B1, “Compositions and methods for advanced glycosylation endproduct-mediated modulation of amyloidosis” (priority 1994, dated 2002).

For one test, the target named is T1, soluble βAP (Homo sapiens, UniProt P05067).
T1 construct: Soluble βAP (400 μM βAP 1-28), 0.1 M sodium acetate in 0.1 M phosphate buffer; purchased Bachem (Torrance, Calif.); host or cells: chemical synthesis
The test can be described thus: Thioflavin-T fluorescence assay of βAP aggregation and seeding. The class given is biochemical. The following applies: 400 μM βAP 1-28, 0.1 M sodium acetate pH 7.0; 100 mM glucose, 0.05 M aminoguanidine; FIG. 4.

The target in test [1] is fibrillar β-amyloid peptide (Homo sapiens, UniProt P05067). In words: Co-precipitation with aggregated β-amyloid peptide (supernatant absorbance spectrum after centrifugation). The format is binding. As for the experimental part: A preparation of Compound 8, supra, was employed in this assay. Soluble β-amyloid peptide was allowed to aggregate in the presence of phosphate buffer, Compound 8 or dithionitrobenzene and various compounds as described in Example 1, supra. The samples containing dithionitrobenzene are controls for non-specific association of a chromophoric small molecule with precipitated β-amyloid peptide. An additional control sample was prepared containing phosphate buffer and the various compounds, but lacking β-amyloid peptide. After overnight incubation, the tubes were centrifuged at 15,000×g for 30 minutes, half of the supernatant removed and added to a cuvette, and the absorbance spectrum of the supernatant from 200 to 600 nm obtained. In the absence of an association between compound 8 and aggregated sedimentable B-amyloid components of the aggregated assay incubation, compound 8, which has an absorbance maximum at about 350 nm, will remain in the supernatant and its presence and concentration can be readily determined. Alternatively, association of Compound 8 with the precipitated β-amyloid peptide would result in decreased absorbance at 350 nm. […] In the control tubes, no decrease in the absorbance is expected, since the compound should remain soluble.
Chain of fibrillar β-amyloid peptide (P05067 672-713 limits assumed): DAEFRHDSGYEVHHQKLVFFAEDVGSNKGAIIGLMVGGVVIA

T1 sequence (P05067 672-699): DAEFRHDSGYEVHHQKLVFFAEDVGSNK
Description for soluble βAP: Aggregation of soluble βAP 1-28 or 3AP 1-40 at different concentrations was initiated by addition of 0.1 M sodium acetate (NaOAc) at the indicated pH (between 4.7 and 7.5) and continued for the indicated times. Quantitative aggregate formation with sub-millimolar βAP concentrations was detected using the procedure of LeVine (1992, Protein Science 2:404-410). Briefly, fluorescence of aggregates added to 10 μM Thioflavin-T (Aldrich)/50 mM potassium phosphate buffer, pH 6.0, was measured upon excitation at 450±5 nm and detection of emission at 482±10 nm on a Perkin Elmer LS-50B spectrofluorimeter. Where indicated, small amounts of pre-formed aggregates or “nucleation seeds” were added to the soluble βAP and aggregation initiated with 0.1 M sodium acetate.
After incubation, protein concentrations of seed preparations were measured and adjusted with buffer to 150 μM final concentration.

Consider `N=C(N)NN` [aminoguanidine], for which the “effect on fluorescent aggregate formation of soluble βAP” value on soluble βAP was “can inhibit the AGE-enhanced aggregation”.

As for `Cc1ccc2nc(-c3ccc(NCCCC[N+](C)(C)C[C@@]4(O)OC[C@@H](O)[C@@H](O)[C@@H]4O)cc3)sc2c1` [Compound 8, (4-[N-(4-[N-(1-deoxy-β-D-fructopyranos-1-yl)-N,N-dimethylammonio]butyl)amino]phenyl)-6-methylbenzothiazole chloride], the “absorbance of the supernatant after pelleting of fibrillar β-amyloid peptide versus before pelleting” value in test [1] (350 nm for Compound 8, overnight incubation, 15,000×g for 30 minutes, FIG. 7) was “reduced”. Further, in test [1] (co-sedimentation in vitro), the “association with insoluble aggregated β-amyloid peptide” value was “specifically associates with insoluble, aggregated β-amyloid peptide deposits”.
